Assay results from patent publication US20250222120A1, “SYNTHESIS OF NOVEL SMALL MOLECULE CARM1 DEGRADERS, COMPOUNDS FORMED THEREBY, AND PHARMACEUTICAL COMPOSITIONS CONTAINING THEM” (Wisconsin Alumni Research Foundation, priority 2024, published 2025).

Key:
CARM1 = molecular target: T1, CARM1 (Homo sapiens, UniProt Q86X55); assay: CARM1 degradation by western blot in MCF7 cells; assay type: cell-based; parameters: Cell lysates were collected and the CARM1 levels were detected by western blots; endogenous in cells; host or cells: MCF7
T1 sequence (Q86X55 1-608): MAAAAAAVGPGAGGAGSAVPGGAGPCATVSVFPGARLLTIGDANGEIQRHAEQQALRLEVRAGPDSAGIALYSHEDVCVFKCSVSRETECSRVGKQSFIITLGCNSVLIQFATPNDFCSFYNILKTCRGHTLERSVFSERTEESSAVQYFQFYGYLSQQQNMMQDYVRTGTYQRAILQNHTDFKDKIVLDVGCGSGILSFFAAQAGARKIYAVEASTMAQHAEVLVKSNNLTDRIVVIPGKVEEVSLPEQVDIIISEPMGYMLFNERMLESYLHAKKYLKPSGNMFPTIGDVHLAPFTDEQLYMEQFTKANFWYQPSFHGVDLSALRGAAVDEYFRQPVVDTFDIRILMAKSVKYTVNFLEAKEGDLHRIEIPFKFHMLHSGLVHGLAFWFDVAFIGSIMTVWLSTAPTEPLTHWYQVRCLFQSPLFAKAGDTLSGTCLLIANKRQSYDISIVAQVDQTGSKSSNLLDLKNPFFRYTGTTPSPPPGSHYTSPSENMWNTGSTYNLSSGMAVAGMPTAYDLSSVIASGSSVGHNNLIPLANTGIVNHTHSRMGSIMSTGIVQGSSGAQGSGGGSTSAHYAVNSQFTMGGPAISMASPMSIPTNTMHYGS

MCF7 cells = assay: Global quantitative proteomic analysis of MCF7 cells by mass spectrometry; assay type: cell-based, Homo sapiens; details: 25 nM, 4 h, two-fold cutoff, p-value ≤0.05, 3491 proteins quantified
Method: Sample preparation for global proteomics analysis. Sample preparation is similar to the previous report (Ma et al. “Strategy Based on Deglycosylation, Multiprotease, and Hydrophilic Interaction Chromatography for Large-Scale Profiling of Protein Methylation” Anal. Chem. 2017, 89 (23), 12909-12917). Briefly, treated MCF7 cells were harvested by washing with PBS buffer (Gibco, pH 7.4) and lysed in RIPA buffer supplemented with protease inhibitors for 20 min, then protein concentration was determined using a BCA Protein Assay Kit (Thermo Pierce, Rockford, IL) per manufacturer instructions. […] The concentrations of the peptide mixture were measured by peptide assay (Thermo Fisher Scientific). […]
LC-MS/MS data acquisition. Samples were analyzed on an Orbitrap Fusion Lumos Tribrid mass spectrometer (Thermo Fisher Scientific) coupled to a Dionex UltiMate 3000 UPLC system. […]
Data analysis. Protein identification and quantification by MaxQuant (version 1.5.3.8) based database searching, using the integrated Andromeda search engine with FDR <1% at peptide and protein levels. […] For label-free protein quantification (LFQ), the MaxQuant LFQ algorithm was used to quantitate the MS signals, and the proteins' intensities were represented in LFQintesnit (Schaab et al. “Analysis of High Accuracy, Quantitative Proteomics Data in the MaxQB Database” Mol. Cell. Proteomics 2012, 11 (3), M111.014068). […]

SMILES: CNCCN1CCC(c2cc(CN(C)C(=O)c3cccc(Oc4ccc(OCC(=O)N5CCC(CN6CCC(CN7CCN(CC(=O)N[C@H](C(=O)N8C[C@H](O)C[C@H]8C(=O)N[C@@H](C)c8ccc(-c9scnc9C)cc8)C(C)(C)C)CC7)CC6)CC5)cc4)c3)ccn2)CC1 [Compound 3b, (2S,4R)-1-((S)-3,3-dimethyl-2-(2-(4-((1-((1-(2-(4-(3-(methyl((2-(1-(2-(methylamino)ethyl)piperidin-4-yl)pyridin-4-yl)methyl)carbamoyl)phenoxy)phenoxy)acetyl)piperidin-4-yl)methyl)piperidin-4-yl)methyl)piperazin-1-yl)acetamido)butanoyl)-4-hydroxy-N—((S)-1-(4-(4-methylthiazol-5-yl)phenyl)ethyl)pyrrolidine-2-carboxamide]
- Dmax (CARM1; MCF7, read-out: Dmax of CARM1 degradation, MCF7 cells, 24 h, western blot, three independent experiments): > 95%
- Time after exposure at which CARM1 degradation was observed (CARM1; MCF7 cells, 0.5 μM, time course): 2 h
- CARM1 degradation over time course (CARM1; MCF7 cells, 0.5 μM, up to 48 h): degradation sustained and further maximized over the course of 48 h
- CARM1 degradation activity, rigid linker compared with 2e (CARM1; MCF7 cells, 0.1, 0.5, 1.0 and 10.0 μM, 24 hours, compared with 2e at 0.5 μM): significantly improved CARM1 degradation activity
- Number of significantly changed proteins compared to the DMSO group (MCF7 cells): 25
